Experimental data from US20260232658A1, “AZETIDINYL BENZOXAZOLE COMPOUNDS AND THEIR USE AS MER AND AXL INHIBITORS” (DONG-A ST CO., LTD., priority 2022, published 2026).

Key:
[1] = target: T1, TYRO3 (455-end) (Homo sapiens, UniProt Q06418); experiment: HTRF kinase activity biochemical assay, TYRO3; conditions: recombinant kinase, 10 uM ATP, 30 minutes pre-incubation; read-out: HTRF TYRO IC50;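 also: biotinylated tyrosine kinase substrate phosphorylation detected via streptavidin-XL665 and Eu3+-cryptate anti-phospho antibody time-resolved fluorescence, read after 1 h detection at room temperature, 384-well format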
T1 construct: TYRO3 (455-end); purchased SignalChem, Canada
T1 sequence (Q06418 455-890 limits assumed): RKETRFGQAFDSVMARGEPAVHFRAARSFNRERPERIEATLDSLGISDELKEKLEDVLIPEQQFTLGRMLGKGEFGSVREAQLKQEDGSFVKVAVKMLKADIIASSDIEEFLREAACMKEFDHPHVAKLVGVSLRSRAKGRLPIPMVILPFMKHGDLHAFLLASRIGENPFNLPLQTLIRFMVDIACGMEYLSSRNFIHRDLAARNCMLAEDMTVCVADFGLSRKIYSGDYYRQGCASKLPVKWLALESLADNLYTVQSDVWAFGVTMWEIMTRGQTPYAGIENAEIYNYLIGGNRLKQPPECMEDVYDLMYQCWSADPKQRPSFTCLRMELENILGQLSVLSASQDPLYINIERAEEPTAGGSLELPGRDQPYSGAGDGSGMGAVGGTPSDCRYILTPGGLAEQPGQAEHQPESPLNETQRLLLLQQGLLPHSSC

[2] = target: T2, human AXL (473-end) (Homo sapiens, UniProt P30530); experiment: HTRF kinase activity biochemical assay, AXL; conditions: recombinant kinase, 10 uM ATP, 30 minutes pre-incubation; read-out: HTRF AXL IC50;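 also: phosphorylation of a biotinylated tyrosine kinase substrate detected via Eu3+-cryptate anti-TK antibody and streptavidin-XL665, fluorescence read after a 1 h incubation at room temperature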
T2 construct: human AXL (473-end); purchased SignalChem, Canada
T2 sequence (P30530 473-894 limits assumed): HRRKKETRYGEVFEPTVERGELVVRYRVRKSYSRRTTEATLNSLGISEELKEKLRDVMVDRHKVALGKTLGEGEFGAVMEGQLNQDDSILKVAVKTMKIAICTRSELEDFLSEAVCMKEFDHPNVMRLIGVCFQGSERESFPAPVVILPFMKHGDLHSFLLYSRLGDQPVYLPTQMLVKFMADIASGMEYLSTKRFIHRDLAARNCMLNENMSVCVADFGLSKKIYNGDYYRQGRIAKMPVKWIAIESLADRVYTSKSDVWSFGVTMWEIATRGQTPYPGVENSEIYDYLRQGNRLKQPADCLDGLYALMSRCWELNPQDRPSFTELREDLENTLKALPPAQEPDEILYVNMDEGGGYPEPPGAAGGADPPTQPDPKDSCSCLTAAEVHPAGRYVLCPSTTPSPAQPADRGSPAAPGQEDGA

[3] = target: T3, human MER (528-end) (Homo sapiens, UniProt Q12866); experiment: HTRF kinase activity biochemical assay, MER; conditions: recombinant kinase, 10 uM ATP, 30 minutes pre-incubation; read-out: HTRF MERTK IC50;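 also: phosphorylation of a biotin-tagged tyrosine kinase substrate detected by Eu3+-cryptate antibody and streptavidin-XL665 time-resolved fluorescence, read after 1 h at room temperature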
T3 construct: human MER (528-end); purchased Carnabio, Japan
T3 sequence (Q12866 528-999 limits assumed): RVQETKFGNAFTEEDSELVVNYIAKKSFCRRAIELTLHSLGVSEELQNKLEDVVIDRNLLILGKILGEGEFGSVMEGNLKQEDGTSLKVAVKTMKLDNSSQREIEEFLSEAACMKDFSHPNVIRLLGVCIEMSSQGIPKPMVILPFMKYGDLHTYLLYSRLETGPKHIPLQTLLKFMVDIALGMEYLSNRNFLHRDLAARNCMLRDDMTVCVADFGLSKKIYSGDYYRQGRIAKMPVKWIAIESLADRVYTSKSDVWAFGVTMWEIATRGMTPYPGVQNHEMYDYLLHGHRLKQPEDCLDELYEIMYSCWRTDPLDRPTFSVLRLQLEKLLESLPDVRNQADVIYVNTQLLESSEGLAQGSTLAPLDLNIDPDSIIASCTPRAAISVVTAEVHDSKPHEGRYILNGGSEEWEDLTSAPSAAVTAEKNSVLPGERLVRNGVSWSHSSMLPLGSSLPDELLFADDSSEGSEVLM

IC50 [1] [nM] | IC50 [2] [nM] | IC50 [3] [nM] | SMILES
230 | 3 | 2 | Cn1cc(Nc2ncc(C3CN(c4nc5ccc(OC[C@H]6COCCO6)cc5o4)C3)nc2C(N)=O)cn1 [Example 48, 6-[1-(6-{[(2R)-1,4-dioxan-2-yl]methoxy}-1,3-benzoxazol-2-yl)azetidin-3-yl]-3-[(1-methyl-1H-pyrazol-4-yl)amino]pyrazine-2-carboxamide]
2030 | 11 | 4 | Cn1cc(Nc2ncc(C3CN(c4nc5ccc(OCC(=O)N6CCCC6)cc5o4)C3)nc2C(N)=O)cn1 [Example 49, 3-[(1-methyl-1H-pyrazol-4-yl)amino]-6-(1-{6-[2-oxo-2-(pyrrolidin-1-yl)ethoxy]-1,3-benzoxazol-2-yl}azetidin-3-yl)pyrazine-2-carboxamide]
3550 | 16 | 9 | CNC(=O)Cc1ccc2nc(N3CC(c4cnc(Nc5cnn(C)c5)c(C(N)=O)n4)C3)oc2c1 [Example 50, 6-(1-{6-[2-(methylamino)-2-oxoethyl]-1,3-benzoxazol-2-yl}azetidin-3-yl)-3-[(1-methyl-1H-pyrazol-4-yl)amino]pyrazine-2-carboxamide]
1740 | 6 | 3 | Cn1cc(Nc2ncc(C3CN(c4nc5ccc(OCC(CO)CO)cc5o4)C3)nc2C(N)=O)cn1 [Example 51, 6-(1-{6-[3-hydroxy-2-(hydroxymethyl)propoxy]-1,3-benzoxazol-2-yl}azetidin-3-yl)-3-[(1-methyl-1H-pyrazol-4-yl)amino]pyrazine-2-carboxamide]
2380 | 17 | 2 | Cn1cc(Nc2ncc(C3CN(c4nc5ccc(OCC6COC(C)(C)OC6)cc5o4)C3)nc2C(N)=O)cn1 [Example 51A, 6-(1-{6-[(2,2-dimethyl-1,3-dioxan-5-yl)methoxy]-1,3-benzoxazol-2-yl}azetidin-3-yl)-3-[(1-methyl-1H-pyrazol-4-yl)amino]pyrazine-2-carboxamide]
2670 | 2 | 4 | Cn1cc(Nc2ncc(C3CN(c4nc5ccc(C(=O)NC6CC6)cc5o4)C3)nc2C(N)=O)cn1 [Example 53, 2-(3-{6-carbamoyl-5-[(1-methyl-1H-pyrazol-4-yl)amino]pyrazin-2-yl}azetidin-1-yl)-N-cyclopropyl-1,3-benzoxazole-6-carboxamide]
620 | 23 | 5 | Cc1ccc2nc(N3CC(c4cnc(Nc5cnn(CCO)c5)c(C(N)=O)n4)C3)oc2c1 [Example 54, 3-{[1-(2-hydroxyethyl)-1H-pyrazol-4-yl]amino}-6-[1-(6-methyl-1,3-benzoxazol-2-yl)azetidin-3-yl]pyrazine-2-carboxamide]
220 | 14 | 3 | COCCn1cc(Nc2ncc(C3CN(c4nc5ccc(C)cc5o4)C3)nc2C(N)=O)cn1 [Example 55, 3-{[1-(2-methoxyethyl)-1H-pyrazol-4-yl]amino}-6-[1-(6-methyl-1,3-benzoxazol-2-yl)azetidin-3-yl]pyrazine-2-carboxamide]
92 | 2 | < 1 | Cn1cc(Nc2ncc(C3CN(c4nc5ccc(OCC6CC(CO)C6)cc5o4)C3)nc2C(N)=O)cn1 (stereo not drawn) [Example 56, 6-[1-(6-{[3-(hydroxymethyl)cyclobutyl]methoxy}-1,3-benzoxazol-2-yl)azetidin-3-yl]-3-[(1-methyl-1H-pyrazol-4-yl)amino]pyrazine-2-carboxamide]
2310 | 8 | 7 | Cn1cc(Nc2ncc(C3CN(c4nc5ccc(OCC6(O)COC6)cc5o4)C3)nc2C(N)=O)cn1 [Example 57, 6-(1-{6-[(3-hydroxyoxetan-3-yl)methoxy]-1,3-benzoxazol-2-yl}azetidin-3-yl)-3-[(1-methyl-1H-pyrazol-4-yl)amino]pyrazine-2-carboxamide]
33 | 1 | < 1 | Cn1cc(Nc2ncc(C3CN(c4nc5ccc(OC[C@H]6C[C@H]6CO)cc5o4)C3)nc2C(N)=O)cn1 [Example 58, 6-[1-(6-{1[(1S,2R)-2-(hydroxymethyl)cyclopropyl]methoxy}-1,3-benzoxazol-2-yl)azetidin-3-yl]-3-[(1-methyl-1H-pyrazol-4-yl)amino]pyrazine-2-carboxamide]
30 | 2 | < 1 | Cn1cc(Nc2ncc(C3CN(c4nc5ccc(C(=O)N6CCC[C@@H]6CO)cc5o4)C3)nc2C(N)=O)cn1 [Example 59, 6-(1-{6-[(2R)-2-(hydroxymethyl)pyrrolidine-1-carbonyl]-1,3-benzoxazol-2-yl}azetidin-3-yl)-3-[(1-methyl-1H-pyrazol-4-yl)amino]pyrazine-2-carboxamide]
100 | 1 | < 1 | Cn1cc(Nc2ncc(C3CN(c4nc5ccc(OCCCc6ccccc6)cc5o4)C3)nc2C(N)=O)cn1 [Example 60, 3-[(1-methyl-1H-pyrazol-4-yl)amino]-6-{1-[6-(3-phenylpropoxy)-1,3-benzoxazol-2-yl]azetidin-3-yl}pyrazine-2-carboxamide]
26 | 1 | < 1 | Cn1cc(Nc2ncc(C3CN(c4nc5ccc(OCC(C)(C)CO)cc5o4)C3)nc2C(N)=O)cn1 [Example 61, 6-{1-[6-(3-hydroxy-2,2-dimethylpropoxy)-1,3-benzoxazol-2-yl]azetidin-3-yl}-3-[(1-methyl-1H-pyrazol-4-yl)amino]pyrazine-2-carboxamide]
1750 | 6 | 3 | CN(C)C(=O)CCc1ccc2nc(N3CC(c4cnc(Nc5cnn(C)c5)c(C(N)=O)n4)C3)oc2c1 [Example 62, 6-(1-{6-[3-(dimethylamino)-3-oxopropyl]-1,3-benzoxazol-2-yl}azetidin-3-yl)-3-[(1-methyl-1H-pyrazol-4-yl)amino]pyrazine-2-carboxamide]
4300 | 16 | 11 | Cn1cc(Nc2ncc(C3CN(c4nc5ccc(CCC(=O)N6CCCC6)cc5o4)C3)nc2C(N)=O)cn1 [Example 63, 3-[(1-methyl-1H-pyrazol-4-yl)amino]-6-(1-{6-[3-oxo-3-(pyrrolidin-1-yl)propyl]-1,3-benzoxazol-2-yl}azetidin-3-yl)pyrazine-2-carboxamide]
37 | 5 | < 1 | COC[C@H]1CCCN1C(=O)c1ccc2nc(N3CC(c4cnc(Nc5cnn(C)c5)c(C(N)=O)n4)C3)oc2c1 [Example 64, 6-(1-{6-[(2R)-2-(methoxymethyl)pyrrolidine-1-carbonyl]-1,3-benzoxazol-2-yl}azetidin-3-yl)-3-[(1-methyl-1H-pyrazol-4-yl)amino]pyrazine-2-carboxamide]
1010 | 1 | < 1 | Cn1cc(Nc2ncc(C3CN(c4nc5ccc(CC(=O)N6CCCC6)cc5o4)C3)nc2C(N)=O)cn1 [Example 65, 3-[(1-methyl-1H-pyrazol-4-yl)amino]-6-(1-{6-[2-oxo-2-(pyrrolidin-1-yl)ethyl]-1,3-benzoxazol-2-yl}azetidin-3-yl)pyrazine-2-carboxamide]
3530 | 95 | 35 | Cn1cc(Nc2ncc(C3CN(c4nc5ccc(CC(=O)O)cc5o4)C3)nc2C(N)=O)cn1 [Example 65C, [2-(3-{6-carbamoyl-5-[(1-methyl-1H-pyrazol-4-yl)amino]pyrazin-2-yl}azetidin-1-yl)-1,3-benzoxazol-6-yl]acetic acid]
